Test results from patent publication US10604554B2, “Double-acylated GLP-1 derivatives” (Novo Nordisk A/S, priority 2012, dated 2020).

Assays:
human GLP-1 receptor [1] = target: T1, human GLP-1 receptor (Homo sapiens, UniProt P43220); experiment: GLP-1 receptor binding (SPA, displacement of 125I-GLP-1)
T1 construct: expressed in transfected cells; host or cells: BHK cells, clone FCW467-12A/KZ10-1 (parent line BHKTS13), further transfected with CRE luciferase
Method in brief: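 Membranes from a stably transfected hamster cell line, 5-10 ug protein/sample, with WGA SPA beads and [125I]-GLP-1(7-36)NH2 at 0.06 nM final. Incubated 120 min at 30 °C with shaking, then counted.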

human GLP-1 receptor [2] = target: T1, human GLP-1 receptor; experiment: In vitro potency (CRE luciferase; whole cells); type: cell-based; conditions: BHK cells
Method in brief: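 Stably transfected BHK cells carrying human GLP-1R and a CRE–firefly luciferase reporter, 5×10^3 cells/well in assay medium, run with 0% or 1% HSA in assay buffer.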

[3] = Receptor binding affinity IC50 (high HSA), 2.0% HSA (high albumin)

T1 sequence (P43220 24-463): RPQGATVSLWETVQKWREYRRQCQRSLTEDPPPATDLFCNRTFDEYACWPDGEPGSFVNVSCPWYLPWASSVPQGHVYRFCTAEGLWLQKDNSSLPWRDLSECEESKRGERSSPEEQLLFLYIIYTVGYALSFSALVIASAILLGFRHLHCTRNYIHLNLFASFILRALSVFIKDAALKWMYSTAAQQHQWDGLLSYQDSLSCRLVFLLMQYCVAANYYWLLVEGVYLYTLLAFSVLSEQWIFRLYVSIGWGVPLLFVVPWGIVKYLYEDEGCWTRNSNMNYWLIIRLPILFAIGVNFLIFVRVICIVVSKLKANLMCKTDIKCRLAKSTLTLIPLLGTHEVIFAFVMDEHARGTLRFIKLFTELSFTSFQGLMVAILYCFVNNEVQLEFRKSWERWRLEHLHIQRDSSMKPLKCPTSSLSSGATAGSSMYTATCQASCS

Compound | IC50 (human GLP-1 receptor [1]; [3]) [nM] | EC50 (human GLP-1 receptor [2]; In vitro potency (CRE luciferase) EC50 (0% HSA), 0% HSA) [nM] | EC50 (human GLP-1 receptor [2]; In vitro potency (CRE luciferase) EC50 (1% HSA), 1% HSA) [nM] | IC50 (human GLP-1 receptor [1]; Receptor binding affinity IC50 (low HSA), 0.001% HSA (low albumin)) [nM]
CC[C@H](C)[C@H](NC(=O)[C@H](Cc1ccccc1)NC(=O)[C@H](CCC(=O)O)NC(=O)[C@H](CCCCNC(=O)[C@@H](N)CCCCNC(=O)[C@@H](N)CCCCNC(=O)CC[C@H](NC(=O)CCCCCCCCCOc1ccc(C(=O)O)cc1)C(=O)O)NC(=O)[C@H](C)NC(=O)[C@H](C)NC(=O)[C@H](CCC(N)=O)NC(=O)CNC(=O)[C@H](CCC(=O)O)NC(=O)[C@H](CC(C)C)NC(=O)[C@H](Cc1ccc(O)cc1)NC(=O)[C@H](CO)NC(=O)[C@H](CO)NC(=O)[C@@H](NC(=O)[C@H](CC(=O)O)NC(=O)[C@H](CO)NC(=O)[C@@H](NC(=O)[C@H](Cc1ccccc1)NC(=O)[C@@H](NC(=O)CNC(=O)[C@H](CCC(=O)O)NC(=O)C(C)(C)NC(=O)[C@@H](N)Cc1c[nH]cn1)[C@@H](C)O)[C@@H](C)O)C(C)C)C(=O)N[C@@H](C)C(=O)N[C@@H](Cc1c[nH]c2ccccc12)C(=O)N[C@@H](CC(C)C)C(=O)N[C@H](C(=O)N[C@@H](CCCNC(=N)N)C(=O)NCC(=O)N[C@@H](CCCNC(=N)N)C(=O)N[C@@H](CCCCNC(=O)[C@@H](N)CCCCNC(=O)[C@@H](N)CCCCNC(=O)CC[C@H](NC(=O)CCCCCCCCCOc1ccc(C(=O)O)cc1)C(=O)O)C(=O)O)C(C)C [Example 1, N^ε26-[(2S)-2-amino-6-[[(2S)-2-amino-6-[[(4S)-4-carboxy-4-[10-(4-carboxyphenoxy)decanoylamino]butanoyl]amino]hexanoyl]amino]hexanoyl], N^ε37-[(2S)-2-amino-6-[[(2S)-2-amino-6-[[(4S)-4-carboxy-4-[10-(4-carboxyphenoxy)decanoylamino]butanoyl]amino]hexanoyl]amino]hexanoyl]-[Aib^8, Arg^34,Lys^37]-GLP-1-(7-37)-peptide] | 13 | 0.004 | 0.057 | 
CC[C@H](C)[C@H](NC(=O)[C@H](Cc1ccccc1)NC(=O)[C@H](CCC(=O)O)NC(=O)[C@H](CCCCNC(=O)[C@@H](N)CCCCNC(=O)[C@@H](N)CCCCNC(=O)CC[C@H](NC(=O)CCCCCCCNC(=O)CCCCCCCCCOc1ccc(C(=O)O)cc1)C(=O)O)NC(=O)[C@H](C)NC(=O)[C@H](C)NC(=O)[C@H](CCC(N)=O)NC(=O)CNC(=O)[C@H](CCC(=O)O)NC(=O)[C@H](CC(C)C)NC(=O)[C@H](Cc1ccc(O)cc1)NC(=O)[C@H](CO)NC(=O)[C@H](CO)NC(=O)[C@@H](NC(=O)[C@H](CC(=O)O)NC(=O)[C@H](CO)NC(=O)[C@@H](NC(=O)[C@H](Cc1ccccc1)NC(=O)[C@@H](NC(=O)CNC(=O)[C@H](CCC(=O)O)NC(=O)C(C)(C)NC(=O)[C@@H](N)Cc1c[nH]cn1)[C@@H](C)O)[C@@H](C)O)C(C)C)C(=O)N[C@@H](C)C(=O)N[C@@H](Cc1c[nH]c2ccccc12)C(=O)N[C@@H](CC(C)C)C(=O)N[C@H](C(=O)N[C@@H](CCCNC(=N)N)C(=O)NCC(=O)N[C@@H](CCCNC(=N)N)C(=O)N[C@@H](CCCCNC(=O)[C@@H](N)CCCCNC(=O)[C@@H](N)CCCCNC(=O)CC[C@H](NC(=O)CCCCCCCNC(=O)CCCCCCCCCOc1ccc(C(=O)O)cc1)C(=O)O)C(=O)O)C(C)C [Example 26, N^ε26-[(2S)-2-amino-6-[[(2S)-2-amino-6-[[(4S)-4-carboxy-4-[8-[10-(4-carboxyphenoxy)decanoylamino]octanoylamino]butanoyl]amino]hexanoyl]amino]hexanoyl], N^ε37-[(2S)-2-amino-6-[[(2S)-2-amino-6-[[(4S)-4-carboxy-4-[8-[10-(4-carboxyphenoxy)decanoylamino]octanoylamino]butanoyl]amino]hexanoyl]amino]hexanoyl]-[Aib^8,Arg^34,Lys^37]-GLP-1-(7-37)-peptide] | 106 |  |  | 0.38
